These results are taken from patent publication US9868746B2, “Substituted 5-aminothieno[2,3-C]pyridazine-6-carboxamide analogs as positive allosteric modulators of the muscarinic acetylcholine receptor M4” (Vanderbilt University, priority 2012, dated 2018).

In one series the target is T1, mAChR M4 (Homo sapiens, UniProt P08173).
T1 construct: expressed in transfected cells; host or cells: CHO-K1 cells stably transfected with M4 cDNA and chimeric G-protein Gqi5
T1 sequence (P08173 1-479): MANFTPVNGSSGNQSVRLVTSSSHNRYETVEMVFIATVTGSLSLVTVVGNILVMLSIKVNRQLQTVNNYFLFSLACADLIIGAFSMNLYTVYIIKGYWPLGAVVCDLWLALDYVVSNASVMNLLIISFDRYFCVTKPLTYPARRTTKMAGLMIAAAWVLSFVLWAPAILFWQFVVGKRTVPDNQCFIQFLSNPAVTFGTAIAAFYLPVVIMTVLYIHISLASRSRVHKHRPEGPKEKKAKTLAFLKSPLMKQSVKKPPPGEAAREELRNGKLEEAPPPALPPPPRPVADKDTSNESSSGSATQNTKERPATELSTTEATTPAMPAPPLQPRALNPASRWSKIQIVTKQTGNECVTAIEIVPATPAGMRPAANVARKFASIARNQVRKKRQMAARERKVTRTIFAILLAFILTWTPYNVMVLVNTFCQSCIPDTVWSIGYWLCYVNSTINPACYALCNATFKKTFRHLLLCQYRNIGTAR
In words: mAChR M4 cell-based functional assay (calcium mobilization, potentiation of EC20 acetylcholine response). The settings on record: for Emax at 30 µM: % ACh maximum at 30 μM; for EC50: mAChR M4 cell-based functional assay, >10,000 estimated for low potency compounds without plateau, read-out: EC50.

The conditions of series [1]: hepatotoxicity of AChE inhibitors such as tacrine; cited from earlier work.
In series [2] the test system is Alzheimer's disease patients. The settings on record: cited from earlier work.
The subject of another series is animal models. The settings on record: cited from earlier work.

Consider `Cc1nnc2sc(C(=O)NCc3ccc(-c4ccsc4)cc3)c(N)c2c1C` [Example B502], for which, at mAChR M4, the Emax at 30 µM came out at 66% and the EC50 was 580 nM.

With `Cc1nnc2sc(C(=O)NCc3ccc(-c4cncc5ccccc45)cc3)c(N)c2c1C` [Example B503], on mAChR M4, the Emax at 30 µM is 56% and the EC50 is 1100 nM.

In the case of `Cc1nnc2sc(C(=O)NCc3ccc(CN4CCCCC4)cc3)c(N)c2c1C` [Example B504], at mAChR M4, the Emax at 30 µM was determined as 68% and the EC50 was 80 nM.

On to `Cc1nnc2sc(C(=O)NCc3ccc(S(=O)(=O)c4ccccc4)cc3)c(N)c2c1C` [Example B505], for which, at mAChR M4, the Emax at 30 µM was found to be 63% and the EC50 was 110 nM.

Regarding `Cc1nnc2sc(C(=O)NCc3ccc(-n4cccn4)cc3)c(N)c2c1C` [Example B506], at mAChR M4, the maximal effect (Emax) at 30 µM came out at 70% and the EC50 was 150 nM.

In the case of `Cc1nnc2sc(C(=O)NCc3ccc(S(=O)(=O)C(F)F)cc3Cl)c(N)c2c1C` [Example B507], at mAChR M4, the Emax at 30 µM was determined as 66% and the EC50 is 510 nM.

For `COc1ccc(CNC(=O)c2sc3nnc(C)c(C)c3c2N)nc1` [Example B508], on mAChR M4, the Emax at 30 µM is 54% and the EC50 was 770 nM.

For `Cc1nnc2sc(C(=O)NCc3ccc(F)cn3)c(N)c2c1C` [Example B509], at mAChR M4, the Emax at 30 µM was 59% and the concentration giving a half-maximal response (EC50) is 1400 nM.

Regarding `Cc1nnc2sc(C(=O)NCc3ccc(-n4cncn4)cc3)c(N)c2c1C` [Example B511], on mAChR M4, the Emax at 30 µM amounted to 67% and the EC50 is 78 nM.

Regarding `Nc1c2c(nc3ccccc13)CCCC2` [tacrine], the “elevated liver transaminases observed in patients” value in series [1] was “about 30 % of patients”.

Regarding `CCCCCCOc1nsnc1C1=CCCN(C)C1` [xanomeline], in series [2] (Bodick 1997), the “psychotic behavioral symptoms such as delusions, suspiciousness, vocal outbursts, and hallucinations” value is listed as “reduce psychotic behavioral symptoms”. Besides, the “treatment induced side effects” value in series [2] is recorded as “gastrointestinal effects”. In addition, in the series with animal models (in vivo), the “catalepsy in animal models” value is “without causing catalepsy”. For the same molecule, the “activity in animal models with similar profiles to known antipsychotic drugs” value in the series on animal models (muscarinic agonist, Bymaster 1998, 1999, Shannon 1999, 2000) was “active in animal models”.
